Data set [1] in a line: Solubility analysis by dynamic light scattering. The format is physicochemical. As for the experimental part: (§1) Compound solubilities were measured by dynamic light scattering (Table 1). […] 2. Detection was conducted on a graphene surface. 3. A His-tagged bHLH construct was immobilized on a chip for site-specific functionalization. […] Compounds were also screened against a monomeric form of MAX (mMAX), as well as MYC-MAX and MAX-MAX dimers.
Solubility analysis. Compounds were analyzed for solubility by dynamic light scattering on a DynaPro NanoStar detector (Wyatt Technology). Compounds were dissolved in MES (pH 6.0) from a 1000×DMSO stock at varying concentrations. Samples were analyzed for aggregation and the maximal concentration at which aggregates were not observed was used as the measure of solubility.

For data set [2], the target named is T1, His-tagged MYC (Homo sapiens, UniProt P01106).
T1 construct: A His-tagged bHLH construct was immobilized on a chip for site-specific functionalization; made in house; host or cells: BL21 E. coli
In words: Bio-FET relative binding studies. The conditions noted are these: Relative to 5a Req; compounds at 10 μM in MES (pH 6.0) with 3% DMSO. The method, then: as §1
Protein expression and purification. His-tagged MYC, mMAX, MYC-MAX, and MAX-MAX constructs were expressed in BL21 E. coli cells and purified as previously described.^10
FET functionalization and regeneration. FET experiments were conducted on an Agile R100 (Nanomedical Diagnostics) at ambient temperature. Chips were functionalized with Ni-NTA according to manufacturer protocols. […] Ni-NTA functionalized chips were regenerated via treatment with 250 mM imidazole for 30 mins, followed by extensive washing in MES, then reintroduction of His-tagged protein.
Relative binding studies. Test compounds were dissolved to desired concentration in MES (pH 6.0) buffer with 3% DMSO. Protein-bound chips were initialized and rinsed in MES buffer with 3% DMSO. For relative binding studies, 6-8 test compounds (including 5a) were analyzed at 10 μM in a single run, and the Req determined and compared to that of 5a. Compounds were tested a minimum of three times across different chips.

Data set [3] concerns CEF transfected with ATG-MYC. The experiment in a line: CEF focus assay (microtumor formation). It is filed as cell-based, chicken. The following applies: Measured in CEF transfected with ATG-MYC. The source says:
The lead exemplified compound in the prior patent application is termed KJ-Pyr-9 herein. […] CEF assay.

In data set [4] the target is T2, MYC (Homo sapiens, UniProt P01106).
T2 construct: A His-tagged bHLH construct was immobilized on a chip for site-specific functionalization; made in house; host or cells: BL21 E. coli
In words: MYC affinity assessment by Bio-FET concentration curve. The format is binding. The conditions noted are these: concentration for ½ Rmax, averaged across three chips. The method, then: (§2) A 10 mg/kg i.v. PK study was conducted in mouse to determine if these favored properties translated into improved PK. Non-compartmental analysis of the mouse PK followed by allometric scaling to the rat afforded a comparison to the rat PK study conducted previously on 5a and is shown in Table 2.
FET functionalization and regeneration. FET experiments were conducted on an Agile R100 (Nanomedical Diagnostics) at ambient temperature. Chips were functionalized with Ni-NTA according to manufacturer protocols. Surface-bound Ni-NTA sites were then bound to His-tagged protein by 15 min incubation with ˜100 nM protein in 50 mM MES (pH 6.0). Ni-NTA functionalized chips were regenerated via treatment with 250 mM imidazole for 30 mins, followed by extensive washing in MES, then reintroduction of His-tagged protein.
MYC affinity assessment. […] Varying concentrations of 5g were allowed to equilibrate with MYC, and the Req values plotted against the concentration. […] This was repeated across three chips and the affinity averaged across those three runs.

Data set [5] in a line: PK analysis of 5g, 10 mg/kg i.v. The format is in vivo, C57BL/6 mice. The method, then:
as §2
PK analysis. Pharmacokinetic analysis of 5g was conducted by Explora Biolabs. 12 C57BL/6 (6 male, 6 female) mice were administered 5g at 10 mg/kg by IV injection. Blood samples were collected at 2 min and 0.08, 0.25, 0.5, 1, 2, 8 and 24 hours post-injection. Bioanalysis was conducted by Integrated Analytical Solutions by processing through a Shimadzu VP series 10 system LC followed by mass analysis on an Applied Biosystems/MDS SCIEX API 3000 triple quadrupole mass spectrometer. All procedures involving the care and use of animals was approved by the IACUC at Explora BioLabs.

In brackets after ≈: the same amount, converted by molar mass.

T1 sequence (P01106 369-421 limits assumed): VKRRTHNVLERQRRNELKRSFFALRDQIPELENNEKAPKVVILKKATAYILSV
T2 sequence (P01106 369-421 limits assumed): as above

Turning to `N#Cc1ccc(-c2cc(-c3ccc(C(N)=O)cc3)ccn2)cc1` [Compound 7a], the Solubility (commonly how much of the substance goes into solution per volume) in data set [1] (pH 6) was 32 µM (≈ 9.58 µg/mL). Further, the “FET Req” value in data set [2] was found to be 0%. The IC50 – broadly, the point on the concentration scale where inhibition reaches its midpoint – in data set [3] amounted to 10 µM.
Turning to `N#Cc1ccc(-c2cccc(-c3ccco3)n2)cc1` [Compound 7b], the Solubility in data set [1] (pH 6) was 10 µM (≈ 2.46 µg/mL). For the same molecule, in data set [2], the “FET Req” value is given as 0%.
Molecule `NC(=O)c1ccc(-c2cc(-c3ccc(-c4nccs4)cc3)nc(-c3ccco3)c2)cc1` [Compound 5g] displayed a Solubility in data set [1] (Measured by DLS in MES (pH 6.0) with <0.1% DMSO) of 125 µM (≈ 52.9 µg/mL). Also, the “FET Req” value in data set [2] was 97%. In data set [3] (Gallus gallus), this molecule had an IC50 of 5 µM. Moreover, the Kd (usually a measure of binding affinity in units of concentration) in data set [4] turned out to be 0.0125 ± 0.0041 µM. Moreover, the “improvement in exposure (AUC)” value in data set [5] (5g versus 5a) is listed as 30 fold. The mean residence time in data set [5] (5g, 10 mg/kg i.v. mouse PK, comparison) was found to be 4.8 h. In addition, in data set [5] (5g, 10 mg/kg i.v., C57Bl6 mice), the AUC is given as 44,000 ng*h/mL; the CI turned out to be 3.8 mL/min/kg; the Half-life is 4.8 h; the Vss (commonly a proportionality between amount in the body and measured concentration, not a real space) is 0.97 L. Also, in data set [5] (both sexes, C57BL/6, mouse, blood, iv, 5g, 10 mg/kg i.v., C57Bl6 mice), the MRT (in general, a mean duration of stay, worked out from the concentration-time curve) came to 4.3 h.

The values are drawn from patent publication US11613535B2, “Compounds for MYC inhibition” (THE SCRIPPS RESEARCH INSTITUTE, priority 2018, dated 2023).
